# Source: patent publication US7632845B2, “Phenyl quinolines and their use as estrogenic agents” (Wyeth, priority 2003, dated 2009)
# Assays:
# ERβ = biological target: T1, ERβ (Homo sapiens, UniProt Q92731); test: Competition with [3H]-17β-estradiol for ERβ ligand binding domain; conditions: for IC50: crude E. coli lysate expressing human ERβ LBD (D, E, & F), 2 nM [3H]-17β-estradiol, 5-15 hours at room temperature; for α/β: receptor selectivity, ratio ERα IC50 / ERβ IC50
# T1 construct: made in house; host or cells: E. coli
# Description: (§1) Representative examples of the invention were evaluated for their ability to compete with 17β-estradiol for both ERα and ERβ. This test procedure provides the methodology for one to determine whether a particular compound binds to the estrogen receptor (and is therefore “estrogenic”) and whether there is selectivity for ERα or ERβ. […] 17β-estradiol is included as a standard reference for compalison. The procedure used is briefly described below. A crude lysate of E. coli expressing the estrogen receptor ligand binding domains (D, E, & F) of human ERα or ERβ was prepared. Both receptors and compounds were diluted in 1× Dulbecco's PBS (DPBS) supplemented with 1 mM EDTA. Using a high binding masked microtiter plate, 100 uL of receptor (1 uG/well) was combined with 2 nM [^3H]-17β-estradiol and various concentrations of compound. After between 5 and 15 hours at room temperature, the plates were washed with DPBS/1 mM EDTA and bound radioactivity determined by liquid scintillation counting.
# ERα = biological target: T2, ERα (Homo sapiens, UniProt P03372); test: Competition with [3H]-17β-estradiol for ERα ligand binding domain; conditions: crude E. coli lysate expressing human ERα LBD (D, E, & F); 2 nM [3H]-17β-estradiol; 5-15 hours at room temperature
# T2 construct: made in house; host or cells: E. coli
# T2 sequence (P03372 311-547 limits assumed): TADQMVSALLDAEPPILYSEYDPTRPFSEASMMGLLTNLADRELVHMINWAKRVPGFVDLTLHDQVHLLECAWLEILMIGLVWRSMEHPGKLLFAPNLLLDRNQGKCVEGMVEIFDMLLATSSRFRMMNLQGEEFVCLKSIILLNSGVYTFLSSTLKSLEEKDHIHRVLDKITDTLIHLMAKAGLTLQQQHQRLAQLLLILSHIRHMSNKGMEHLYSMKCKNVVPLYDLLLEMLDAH
# Description: as §1
# T1 sequence (Q92731 264-498 limits assumed): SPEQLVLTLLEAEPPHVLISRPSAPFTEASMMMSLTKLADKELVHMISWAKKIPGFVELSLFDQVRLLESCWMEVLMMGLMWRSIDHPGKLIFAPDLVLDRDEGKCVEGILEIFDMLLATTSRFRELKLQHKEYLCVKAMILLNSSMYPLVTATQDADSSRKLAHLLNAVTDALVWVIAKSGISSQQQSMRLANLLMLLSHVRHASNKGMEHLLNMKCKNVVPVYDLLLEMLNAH
Compound,IC50 (ERβ) [nM],α/β (ERβ),IC50 (ERα) [nM]
"CC(=O)Oc1ccc2nc(-c3ccc(OC(C)=O)c(F)c3)cc(Br)c2c1 [Cpd 7, 6-Acetoxy-4-bromo-2-(3-fluoro-4-acetoxyphenyl)quinoline]",198,>25,> 5000
"C[Si](C)(C)C#Cc1cc(-c2ccc(O)cc2)nc2ccc(O)cc12 [Cpd 13a, 2-(4-Hydroxyphenyl)-4-[(trimethylsilyl)ethynyl]quinolin-6-ol]",161,9,1510
"C[Si](C)(C)C#Cc1cc(-c2ccc(O)c(F)c2)nc2ccc(O)cc12 [Cpd 13b, 2-(3-Fluoro-4-hydroxyphenyl)-4-[(trimethylsilyl)ethynyl]quinolin-6-ol]",153,11,1690
"Oc1ccc2nc(-c3ccc(O)c(F)c3)cc(C#Cc3ccccc3)c2c1 [Cpd 15, 2-(3-Fluoro-4-hydroxyphenyl)-4-(phenylethynyl)quinolin-6-ol]",195,62,12000
"Oc1ccc2nc(-c3ccc(O)c(F)c3)cc(-c3nccs3)c2c1 [Cpd 18, 2-(3-Fluoro-4-hydroxyphenyl)-4-thiazol-2-yl-quinolin-6-ol]",208,10,2160
"Oc1ccc2nc(-c3ccc(O)c(F)c3)cc(-c3ccccc3)c2c1 [Cpd 20, 2-(3-Fluoro-4-hydroxyphenyl)-4-phenylquinolin-6-ol]",128,11,1380
"Cc1ccc(-c2cc(-c3ccc(O)c(F)c3)nc3ccc(O)cc23)cc1 [Cpd 21, 2-(3-Fluoro-4-hydroxyphenyl)-4-(4-methylphenyl)quinolin-6-ol]",112,26,2920
"Oc1ccc2nc(-c3ccc(O)c(F)c3)cc(-c3ccc(F)cc3)c2c1 [Cpd 22, 2-(3-Fluoro-4-hydroxyphenyl)-4-(4-fluorophenyl)quinolin-6-ol]",33,18,591
"Oc1ccc2nc(-c3ccc(O)c(F)c3)cc(-c3ccc(Cl)cc3)c2c1 [Cpd 23, 4-(4-Chlorophenyl)-2-(3-fluoro-4-hydroxyphenyl)quinolin-6-ol]",146,>6,> 1000
"N#Cc1ccc(-c2cc(-c3ccc(O)c(F)c3)nc3ccc(O)cc23)cc1 [Cpd 24, 4-(4-Cyanophenyl)-2-(3-fluoro-4-hydroxyphenyl)quinolin-6-ol]",53,34,1810
"Oc1ccc2nc(-c3ccc(O)c(F)c3)cc(-c3ccc(C(F)(F)F)cc3)c2c1 [Cpd 25, 2-(3-Fluoro-4-hydroxyphenyl)-4-(4-trifluoromethylphenyl)quinolin-6-ol]",> 5000,–,> 5000
"Oc1ccc2nc(-c3ccc(O)c(F)c3)cc(-c3ccsc3)c2c1 [Cpd 26, 2-(3-Fluoro-4-hydroxyphenyl)-4-thiophen-3-yl-quinolin-6-ol]",75,12,868
"Oc1ccc2nc(-c3ccc(O)c(F)c3)cc(-c3ccncc3)c2c1 [Cpd 27, 2-(3-Fluoro-4-hydroxyphenyl)-4-(4-pyridinyl)quinolin-6-ol]",78,>12,> 1000
"Oc1ccc2nc(-c3ccc(O)c(F)c3)cc(-c3cncnc3)c2c1 [Cpd 28, 2-(3-Fluoro-4-hydroxyphenyl)-4-(5-pyrimidinyl)quinolin-6-ol]",968,3,3310
"Oc1ccc(-c2ccc3c(Cl)c(O)ccc3n2)cc1 [Cpd 31, 5-Chloro-2-(4-hydroxyphenyl)quinolin-6-ol]",38,22,840
"Oc1ccc(-c2ccc3c(Br)c(O)ccc3n2)cc1 [Cpd 32, 5-Bromo-2-(4-hydroxyphenyl)quinolin-6-ol]",90,13,1190
"Oc1ccc(-c2nc3ccc(O)cc3c(-c3ccc(F)cc3)c2Cl)cc1 [Cpd 36, 3-Chloro-4-(4-fluorophenyl)-2-(4-hydroxyphenyl)quinolin-6-ol]",244,1.4,340
"N#Cc1c(Cl)c(-c2ccc(O)c(F)c2)nc2ccc(O)cc12 [Cpd 37, 3-Chloro-4-cyano-2-(3-fluoro-4-hydroxyphenyl)quinolin-6-ol]",26,12,318
"Oc1cc(Br)c2nc(-c3ccc(O)c(F)c3)cc(Cl)c2c1 [Cpd 44, 8-Bromo-4-chloro-2-(3-fluoro-4-hydroxyphenyl)-quinolin-6-ol]",0.54,57,31
"N#Cc1cc(-c2ccc(O)c(F)c2)nc2c(Cl)cc(O)cc12 [Cpd 47, 8-Chloro-4-cyano-2-(3-fluoro-4-hydroxyphenyl)quinolin-6-ol]",1.7,113,192
"C#Cc1cc(-c2ccc(O)c(F)c2)nc2c(Cl)cc(O)cc12 [Cpd 48, 8-Chloro-4-ethynyl-2-(3-fluoro-4-hydroxyphenyl)quinolin-6-ol]",0.75,50,37

# Further lines, results first:
IC50 (ERβ) [nM],α/β (ERβ),IC50 (ERα) [nM],Compound
4.6,46,213,"Oc1ccc(-c2cc(Cl)c3cc(O)ccc3n2)cc1 [Cpd 5a, 4-Chloro-2-(4-hydroxyphenyl)quinolin-6-ol]"
–,–,246,"Oc1ccc2nc(-c3ccc(O)c(F)c3)cc(Cl)c2c1 [Cpd 5b, 4-Chloro-2-(3-fluoro-4-hydroxyphenyl)quinolin-6-ol]"
3.4,–,283,"Oc1ccc2nc(-c3ccc(O)c(F)c3)cc(Br)c2c1 [Cpd 6b, 4-Bromo-2-(3-fluoro-4-hydroxyphenyl)quinolin-6-ol]"
42,23,976,"Oc1ccc2nc(-c3cc(F)c(O)c(F)c3)cc(Br)c2c1 [Cpd 6c, 4-Bromo-2-(3,5-difluoro-4-hydroxyphenyl)quinolin-6-ol]"
2.4,43,103,"Oc1ccc(-c2cc(I)c3cc(O)ccc3n2)cc1 [Cpd 8a, 2-(4-Hydroxyphenyl)-4-iodoquinolin-6-ol]"
5,73,365,"Oc1ccc2nc(-c3ccc(O)c(F)c3)cc(I)c2c1 [Cpd 8b, 2-(3-Fluoro-4-hydroxyphenyl)-4-iodoquinolin-6-ol]"
37,12,458,"C=Cc1cc(-c2ccc(O)c(F)c2)nc2ccc(O)cc12 [Cpd 11b, 2-(3-Fluoro-4-hydroxyphenyl)-4-vinylquinolin-6-ol]"
61,14,837,"CCc1cc(-c2ccc(O)cc2)nc2ccc(O)cc12 [Cpd 12a, 4-Ethyl-2-(4-hydroxyphenyl)quinolin-6-ol]"
40,26,1030,"CCc1cc(-c2ccc(O)c(F)c2)nc2ccc(O)cc12 [Cpd 12b, 4-Ethyl-2-(3-fluoro-4-hydroxyphenyl)quinolin-6-ol]"
76,20,1500,"C#Cc1cc(-c2ccc(O)cc2)nc2ccc(O)cc12 [Cpd 14a, 4-Ethynyl-2-(4-hydroxyphenyl)quinolin-6-ol]"
32,106,3410,"C#Cc1cc(-c2ccc(O)c(F)c2)nc2ccc(O)cc12 [Cpd 14b, 4-Ethynyl-2-(3-fluoro-4-hydroxyphenyl)quinolin-6-ol]"
211,14,2940,"CC(=O)c1cc(-c2ccc(O)cc2)nc2ccc(O)cc12 [Cpd 16a, 4-Acetyl-2-(4-hydroxyphenyl)quinolin-6-ol]"
–,–,3370,"CC(=O)c1cc(-c2ccc(O)c(F)c2)nc2ccc(O)cc12 [Cpd 16b, 4-Acetyl-2-(3-fluoro-4-hydroxyphenyl)quinolin-6-ol]"
> 5000,–,> 5000,"CC(O)c1cc(-c2ccc(O)cc2)nc2ccc(O)cc12 (centres unmarked) [Cpd 17a, 4-(1-Hydroxyethyl)-2-(4-hydroxyphenyl)quinolin-6-ol]"
1.25,62,78,"Oc1ccc(-c2nc3ccc(O)cc3c(Br)c2Cl)cc1 [Cpd 35a, 4-Bromo-3-chloro-2-(4-hydroxyphenyl)quinolin-6-ol]"
3.7,24,90,"Oc1ccc2nc(-c3ccc(O)c(F)c3)c(Cl)c(Br)c2c1 [Cpd 35b, 4-Bromo-3-chloro-2-(3-fluoro-4-hydroxyphenyl)quinolin-6-ol]"
0.35,53,18.7,"Oc1cc(Cl)c2nc(-c3ccc(O)c(F)c3)cc(Br)c2c1 [Cpd 45a, 4-Bromo-8-chloro-2-(3-fluoro-4-hydroxyphenyl)quinolin-6-ol]"
1.7,7,11.6,"Oc1cc(Br)c2nc(-c3ccc(O)c(F)c3)cc(Br)c2c1 [Cpd 45b, 4,8-Dibromo-2-(3-fluoro-4-hydroxyphenyl)quinolin-6-ol]"
